{"source": "patent US20250073222A1", "about": "“METHODS FOR THE TREATMENT AND PREVENTION OF NON-VIRAL TICK-BORNE DISEASES AND SYMPTOMS THEREOF” (60 DEGREES PHARMACEUTICALS LLC, priority 2023, published 2025)", "origin": "cited, not measured here", "key": {"[1]": {"system": "Babesia parasites", "conditions": "100 microM for 2 h; cited from earlier work"}, "[2]": {"system": "Trypanosome brucei blood stage forms", "conditions": "exposure for 90 minutes; cited from earlier work"}, "[3]": {"system": "Treponema palludum", "conditions": "50 or 100 microM for two hours in a 3% oxygen atmosphere; cited from earlier work"}, "[4]": {"system": "various serovars of Leptospira", "conditions": "exposure for as little as 30 min; cited from earlier work"}, "[5]": {"system": "Babesia microti", "conditions": "animals; cited from earlier work"}, "[6]": {"system": "Pneumocystis", "conditions": "mice; cited from earlier work"}, "[7]": {"system": "Babesia", "conditions": "mice, single doses; cited from earlier work"}, "[8]": {"system": "P. falciparum gametocytes", "conditions": "single dose combined with dihydroartemisinin/piperaquine; cited from earlier work"}, "[9]": {"system": "gametocytes of P. falciparum", "conditions": "cited from earlier work"}, "[10]": {"conditions": "cited from earlier work"}, "[11]": {"system": "Babesia", "conditions": "one and three doses, immunocompromised mice and dogs; cited from earlier work"}, "[12]": {"conditions": "coadministered with chloroquine; cited from earlier work"}, "[13]": {"conditions": "loading dose of 600 mg over three days followed by weekly 200 mg for up to one year, cited from earlier work"}, "[14]": {"system": "Plasmodium vivax", "conditions": "400 mg/day for three days, monotherapy, symptomatic P. vivax malaria patients; cited from earlier work"}, "[15]": {"system": "Plasmodium falciparum", "conditions": "600 mg loading dose followed by 200 mg; parasite load three days after last dose; non-immune volunteers; cited from earlier work"}, "[16]": {"system": "B. rodhaini", "conditions": "cited from earlier work"}, "[17]": {"system": "extracellular blood stage forms of Trypanosoma brucei", "conditions": "cited from earlier work"}, "[18]": {"system": "intracellular amastigote forms of Leishmania major", "conditions": "cited from earlier work"}, "[19]": {"system": "free-living gram-negative bacteria and free-living gram-positive bacteria", "conditions": "cited from earlier work"}, "[20]": {"system": "B. gibsoni", "conditions": "splenectomized dogs; cited from earlier work"}, "[21]": {"system": "B. microti", "conditions": "one patient, prior rituximab; tafenoquine: approved malaria prevention dose as monotherapy for six weeks; cited from earlier work"}, "[22]": {"conditions": "single dose of 20 mg/kg, Balb/c (immunocompetent) mice"}, "[23]": {"conditions": "single dose of 20 mg/kg, immunocompromised SCID mice"}}, "note": "Like-named read-outs stand apart in the source and are kept apart here.", "data": [{"compound": "OO", "note": "[hydrogen peroxide]", "values": [{"measurement": "effect on Babesia parasites in vitro", "setting": "[1]", "result": "kills Babesia parasites in vitro"}, {"measurement": "concentration that killed blood stage forms", "setting": "[2]", "result": "approximately 140 microM"}, {"measurement": "effect on growth", "setting": "[3]", "result": "significantly inhibited"}, {"measurement": "concentrations that killed", "setting": "[4]", "result": "< 180", "unit": "µM"}]}, {"compound": "COc1cc(NC(C)CCCN)c2nccc(C)c2c1", "note": "(centres unmarked) [4-methyl substituted primaquine]", "values": [{"measurement": "efficacy against Babesia microti compared with primaquine", "setting": "[5]", "result": "more efficacious than primaquine"}]}, {"compound": "COc1cc(NC(C)CCCN)c2ncccc2c1", "note": "(centres unmarked) [primaquine]", "values": [{"measurement": "cure of Pneumocystis infections", "setting": "[6]", "result": "must be combined with clindamycin to achieve the same outcome"}, {"measurement": "dose that cleared Babesia parasitemia", "setting": "[7]", "result": 100, "unit": "mg/kg"}, {"measurement": "time until gametocyte infectivity was statistically lower than reference values", "setting": "[8]", "result": "by two days post-dosing"}, {"measurement": "effect on gametocytes of P. falciparum", "setting": "[9]", "result": "killed by site specific (in bone marrow) excess production of hydrogen peroxide"}, {"measurement": "half-life", "setting": "[10]; in vivo", "result": "approximately 6 hours"}]}, {"compound": "COc1cc(C)c2c(Oc3cccc(C(F)(F)F)c3)c(OC)cc(NC(C)CCCN)c2n1", "note": "(centres unmarked) [tafenoquine, N(4)-[2,6-Dimethoxy-4-methyl-5-[3-(trifluoromethyl)phenoxy]quinolin-8-yl]pentane-1,4-diamine]", "values": [{"measurement": "clearance and cure of Babesia", "setting": "[11]", "result": "sufficient to clear and cure Babesia"}, {"measurement": "cure of Pneumocystis infections", "setting": "[6]", "result": "can be administered as monotherapy to cure Pneumocystis infections"}, {"measurement": "dose that cleared Babesia parasitemia", "setting": "[7]", "result": 20, "unit": "mg/kg"}, {"measurement": "effect on QTC prolongation of chloroquine", "setting": "[12]", "result": "did not increase the QTC prolongation"}, {"measurement": "overall rate of adverse events relative to placebo", "setting": "[13]", "result": "without increasing the overall rate of adverse events"}, {"measurement": "specific adverse events with increased risk", "setting": "[13]; reversible, not clinically significant", "result": "gastrointestinal effects [mild to moderate] and cornea verticillata"}, {"measurement": "time by which all patients cleared blood stage parasites", "setting": "[14]", "result": "≤ 8", "unit": "days"}, {"measurement": "development of blood stage parasitemia after challenge", "setting": "[15]", "result": "none of the tafenoquine subjects did"}, {"measurement": "effect on B. rodhaini blood stages (vacuoles)", "setting": "[16]; single dose of 20 mg/kg in mice", "result": "induces the formation of large vacuoles"}, {"measurement": "parasitemia", "setting": "[16]; [22]", "result": "cleared parasitemia"}, {"measurement": "survival", "setting": "[16]; [22]", "result": 100, "unit": "%"}, {"measurement": "death", "setting": "[16]; [23]", "result": "death was therefore delayed"}, {"measurement": "parasitemia", "setting": "[16]; [23]", "result": "cleared initial parasitemia but did not prevent relapses"}, {"measurement": "potency of killing", "setting": "[17]", "result": "< 4", "unit": "µM"}, {"measurement": "potency of killing", "setting": "[18]", "result": "< 4", "unit": "µM"}, {"measurement": "activity against gram-negative versus gram-positive bacteria", "setting": "[19]", "result": "much less active against free-living gram-negative bacteria than free-living gram-positive bacteria"}, {"measurement": "symptoms of infection such as anorexia, elevated respiration and pulse", "setting": "[20]", "result": "alleviated"}, {"measurement": "clinical outcome of the regimen", "setting": "[21]", "result": "the patient was cured"}, {"measurement": "half-life in vivo compared with primaquine", "setting": "[10]; FIG. 1A and FIG. 1B legend", "result": "longer half-life in vivo"}]}]}
